Data from ChEMBL document CHEMBL3739366, “Discovery of HTL6641, a dual orexin receptor antagonist with differentiated pharmacodynamic properties” (Medchemcomm, 2015).

Key:
[1] = Oral bioavailability in Sprague-Dawley rat at 2 mg/kg; format: ADME, organism-based; conditions: in vivo
Salmonella typhimurium = experiment: Genotoxicity in Salmonella typhimurium by Ames test in absence of S9 fraction; format: toxicity, organism-based; conditions: salmonella enterica subsp. enterica serovar typhimurium
[2] = Volume of distribution at steady state in Sprague-Dawley rat at 1 mg/kg, iv; format: ADME, organism-based; conditions: in vivo, read-out: Vdss
Canis familiaris = experiment: AUC (infinity) in beagle dog at 1 mg/kg, po; format: ADME, organism-based, Canis lupus familiaris; parameters: dose 1 mg/kg, route oral, time infinity; conditions: in vivo
[3] = Plasma protein binding in mouse; format: ADME, cell-free; conditions: read-out: PPB (converted)
Cytochrome P450 1A2 = biological target: T1, Cytochrome P450 1A2 (Homo sapiens, UniProt P05177); experiment: Inhibition of CYP1A2 (unknown origin); format: ADME
T1 sequence (P05177 whole entry): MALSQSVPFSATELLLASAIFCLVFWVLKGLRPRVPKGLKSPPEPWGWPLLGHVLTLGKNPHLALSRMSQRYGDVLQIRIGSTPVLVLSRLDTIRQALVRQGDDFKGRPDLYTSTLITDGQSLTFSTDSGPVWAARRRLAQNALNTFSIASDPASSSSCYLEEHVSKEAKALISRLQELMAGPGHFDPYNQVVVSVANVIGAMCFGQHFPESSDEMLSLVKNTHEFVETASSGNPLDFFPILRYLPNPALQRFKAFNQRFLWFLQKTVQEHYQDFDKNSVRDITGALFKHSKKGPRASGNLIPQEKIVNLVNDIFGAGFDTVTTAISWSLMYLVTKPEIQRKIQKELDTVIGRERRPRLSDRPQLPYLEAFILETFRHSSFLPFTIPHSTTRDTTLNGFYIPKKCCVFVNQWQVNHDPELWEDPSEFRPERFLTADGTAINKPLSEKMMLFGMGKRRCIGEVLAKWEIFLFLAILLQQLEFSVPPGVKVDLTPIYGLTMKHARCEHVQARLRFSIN

Rattus norvegicus [4] = experiment: Antiinsomnic activity in CD1 rat assessed as increase of NREM sleep at 3 mg/kg, po administered at circadian time 18 hrs measured after 3 hrs; format: functional
Rattus norvegicus [5] = experiment: Antiinsomnic activity in CD1 rat assessed as increase of promoted sleep at 3 to 10 mg/kg, po administered at circadian time 18 hrs measured after 3 hrs; format: functional
[6] = Half life in Sprague-Dawley rat at 2 mg/kg, po; format: ADME, organism-based; conditions: in vivo
Rattus norvegicus [7] = experiment: Antiinsomnic activity in CD1 rat assessed as increase of NREM sleep at 10 mg/kg, po administered at circadian time 18 hrs measured after 3 hrs; format: functional
[8] = Bidirectional apparent permeability of the compound across human Caco2 cells; format: ADME, cell-based; conditions: Caco-2, read-out: permeability
[9] = Ratio of drug level in cerebrospinal fluid to brain in Sprague-Dawley rat at 1 mg/kg, iv after 0.5 hrs; format: ADME, organism-based, CSF/Brain; conditions: in vivo
[10] = Plasma concentration in Sprague-Dawley rat plasma at 1 mg/kg, po after 1 hr; format: ADME, organism-based
[11] = biological target: Voltage-gated inwardly rectifying potassium channel KCNH2 (Homo sapiens, UniProt Q12809); experiment: Inhibition of human ERG
[12] = Tmax in Sprague-Dawley rat at 2 mg/kg, po; format: ADME, organism-based; conditions: in vivo
[13] = Volume of distribution at steady state in beagle dog at 1 mg/kg, iv; format: ADME, organism-based, Canis lupus familiaris; conditions: in vivo, read-out: Vdss
Orexin receptor type 2 = biological target: T2, Orexin receptor type 2 (Homo sapiens, UniProt O43614); experiment: Displacement of [3H]EMPA from human orexin receptor-2 expressed in HEK293 cells after 90 mins by scintillation counting; format: cell-based
T2 sequence (O43614 whole entry): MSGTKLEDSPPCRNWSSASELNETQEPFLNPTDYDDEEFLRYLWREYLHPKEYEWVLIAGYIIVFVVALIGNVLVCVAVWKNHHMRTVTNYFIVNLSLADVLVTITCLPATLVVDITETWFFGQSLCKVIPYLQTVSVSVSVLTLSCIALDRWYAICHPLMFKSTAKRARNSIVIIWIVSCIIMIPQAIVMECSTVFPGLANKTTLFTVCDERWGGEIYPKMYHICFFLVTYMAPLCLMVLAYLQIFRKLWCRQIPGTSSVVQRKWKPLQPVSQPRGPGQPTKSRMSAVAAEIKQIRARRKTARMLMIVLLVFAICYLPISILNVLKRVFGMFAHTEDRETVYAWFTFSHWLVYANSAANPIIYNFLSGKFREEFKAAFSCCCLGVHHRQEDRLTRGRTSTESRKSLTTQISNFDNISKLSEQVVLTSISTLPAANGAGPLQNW

[14] = Plasma protein binding in dog; format: ADME, cell-free, Canis lupus familiaris; conditions: read-out: PPB (converted)
Rattus norvegicus [15] = experiment: Effect on latency to first NREM episode CD1 rat assessed as reduction of at 3 and 10 mg/kg, po administered at circadian time 18 hrs; format: ADME, organism-based; conditions: in vivo
[16] = Half life in cynomolgus monkey hepatocytes; format: ADME, cell-based, Macaca fascicularis, Hepatocyte
[17] = biological target: T3, Orexin/Hypocretin receptor type 1 (Homo sapiens) (UniProt O43613); conditions: CHO
T3 sequence (whole entry): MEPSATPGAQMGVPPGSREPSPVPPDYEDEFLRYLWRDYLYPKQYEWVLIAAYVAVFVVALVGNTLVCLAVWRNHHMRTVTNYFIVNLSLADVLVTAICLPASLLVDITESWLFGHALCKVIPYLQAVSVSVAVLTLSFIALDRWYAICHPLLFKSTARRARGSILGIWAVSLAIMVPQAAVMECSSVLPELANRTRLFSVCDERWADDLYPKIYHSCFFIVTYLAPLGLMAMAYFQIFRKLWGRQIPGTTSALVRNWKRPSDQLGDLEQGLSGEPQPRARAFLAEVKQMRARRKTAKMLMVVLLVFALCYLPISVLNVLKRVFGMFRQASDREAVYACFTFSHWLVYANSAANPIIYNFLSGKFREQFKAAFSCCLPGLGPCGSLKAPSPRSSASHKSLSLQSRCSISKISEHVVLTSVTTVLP
Description: Antagonist activity at human orexin receptor-1 expressed in CHO cells assessed as orexin-A-induced ERK1/2 phosphorylation after 2 hrs by fluorescence assay

[18] = Clearance in Sprague-Dawley rat at 1 mg/kg, iv; format: ADME, organism-based; conditions: in vivo
[19] = Mean residence time in Sprague-Dawley rat; format: ADME, organism-based; conditions: in vivo

Sequence of Voltage-gated inwardly rectifying potassium channel KCNH2 (Q12809 whole entry): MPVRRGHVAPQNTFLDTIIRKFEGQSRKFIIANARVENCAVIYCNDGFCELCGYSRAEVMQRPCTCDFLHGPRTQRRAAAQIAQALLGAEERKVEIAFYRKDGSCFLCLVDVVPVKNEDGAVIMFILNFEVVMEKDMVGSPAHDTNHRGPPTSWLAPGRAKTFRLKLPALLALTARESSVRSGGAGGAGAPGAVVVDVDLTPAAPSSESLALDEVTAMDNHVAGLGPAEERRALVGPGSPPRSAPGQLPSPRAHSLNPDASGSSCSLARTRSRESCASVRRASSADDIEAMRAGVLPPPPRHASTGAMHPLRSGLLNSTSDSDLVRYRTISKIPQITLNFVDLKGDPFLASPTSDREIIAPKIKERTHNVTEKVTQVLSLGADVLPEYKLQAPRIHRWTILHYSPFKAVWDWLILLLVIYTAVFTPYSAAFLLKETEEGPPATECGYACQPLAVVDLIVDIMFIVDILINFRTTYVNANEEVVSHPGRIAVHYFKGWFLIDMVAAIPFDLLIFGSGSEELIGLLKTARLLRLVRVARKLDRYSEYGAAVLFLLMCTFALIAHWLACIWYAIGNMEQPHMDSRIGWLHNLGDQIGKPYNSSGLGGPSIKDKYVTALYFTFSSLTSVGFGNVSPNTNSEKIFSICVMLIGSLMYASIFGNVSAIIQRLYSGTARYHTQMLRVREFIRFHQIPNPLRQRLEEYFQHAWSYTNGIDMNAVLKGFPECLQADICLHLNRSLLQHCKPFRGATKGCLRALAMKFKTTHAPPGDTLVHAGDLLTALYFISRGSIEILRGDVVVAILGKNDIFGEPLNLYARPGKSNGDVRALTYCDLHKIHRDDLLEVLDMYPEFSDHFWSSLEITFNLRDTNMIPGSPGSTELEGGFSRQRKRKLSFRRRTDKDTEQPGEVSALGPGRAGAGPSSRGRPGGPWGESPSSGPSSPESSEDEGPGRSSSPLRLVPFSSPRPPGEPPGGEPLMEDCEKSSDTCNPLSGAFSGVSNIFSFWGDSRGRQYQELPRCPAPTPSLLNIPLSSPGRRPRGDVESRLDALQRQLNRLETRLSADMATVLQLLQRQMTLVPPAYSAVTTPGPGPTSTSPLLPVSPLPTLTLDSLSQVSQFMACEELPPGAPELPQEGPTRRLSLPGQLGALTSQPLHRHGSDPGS

- bioavailability [1]: 66%
- Vd [2]: 2.1 L/kg
- AUC (Canis familiaris): 2440 ng·h/mL
- fraction unbound [3]: 0.008
- IC50 (Cytochrome P450 1A2): > 10 µM
- half-life [6]: 1.8 h
- Papp [8]: 52 ×10⁻⁶ cm/s
- Ratio [9]: 0.01
- concentration at 1 h [10]: 72 ng/mL
- Tmax [12]: 0.5 h
- Vd [13]: 3 L/kg
- Ki (Orexin receptor type 2): 0.00251 µM
- fraction unbound [14]: 0.019
- half-life [16]: > 4.17 h
- pKb [17]: 6.6
- clearance [18]: 18 mL/min/kg
- MRT [19]: 1.9 h
SMILES: COc1cc(N2C(=O)N(Cc3c(F)cc(F)cc3F)c3ncccc3S2(=O)=O)cnc1OC
- Activity (Salmonella typhimurium): Non-toxic
- Activity (Rattus norvegicus [4]): 28.8%
- Activity (Rattus norvegicus [5]): 17.4%
- Activity (Rattus norvegicus [7]): 30.7%
- IC50 [11]: > 10 µM
- Activity (Rattus norvegicus [15]): Non-toxic
